Converted amounts (≈) assume the structure as drawn. One block for each compound: values may come before it.
Experiments:
Test in all cases: in vitro antibacterial evaluation, MIC by broth dilution
Type in all cases: cell-based
[1] = test system: Enterococcus sp.; conditions: broth dilution, 18 hours at 35° C.; for MIC Enterococcus faecalis (ATCC 29212): strain ATCC 29212; for MIC Enterococcus faecalis (GC 2242): strain GC 2242; for MIC Enterococcus faecium (GC 2243): strain GC 2243; for MIC Enterococcus faecalis (GC 2691): strain GC 2691; for MIC Enterococcus faecalis (GC 3059): strain GC 3059; for MIC Enterococcus faecalis (GC 4552): strain GC 4552; for MIC Enterococcus faecalis (GC 4553): strain GC 4553; for MIC Enterococcus faecalis (GC 4554): strain GC 4554; for MIC Enterococcus faecium (GC 4556): strain GC 4556; for MIC Enterococcus faecium (GC 4557): strain GC 4557; for MIC Enterococcus avium (GC 4558): strain GC 4558; for MIC Enterococcus faecalis (GC 6189): strain GC 6189
Method in brief: (§1)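 Following National Committee for Clinical Laboratory Standards recommendations (M7-A2), susceptibility was measured by dilution in Muller-Hinton II […]. Bacteria were seeded at 5×10^5 CFU/mL against compound concentrations from 64 down to 0.06 μg/mL.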

[2] = test system: Escherichia coli; conditions: for MIC Escherichia coli (ATCC 25922): strain ATCC 25922, 18 hours at 35° C.; for MIC Escherichia coli (GC 4559): strain GC 4559, 18 hours at 35° C.; for MIC Escherichia coli (GC 4560): strain GC 4560, 18 hours at 35° C.
Method in brief: as §1

[3] = test system: Staphylococcus sp.; conditions: broth dilution, 18 hours at 35° C.; for MIC Staphylococcus aureus (GC 1131): strain GC 1131; for MIC Staphylococcus aureus (ATCC 29213): strain ATCC 29213; for MIC Staphylococcus aureus (GC 3051): strain GC 3051; for MIC Staphylococcus aureus (GC 3053): strain GC 3053; for MIC Staphylococcus aureus (GC 4541): strain GC 4541; for MIC Staphylococcus aureus (GC 4542): strain GC 4542; for MIC Staphylococcus aureus-SMITH (GC 4543): strain GC 4543; for MIC Staphylococcus aureus (GC 4544): strain GC 4544; for MIC Staphylococcus aureus (GC 4545): strain GC 4545; for MIC Staphylococcus haemolyticus (GC 4546): strain GC 4546; for MIC Coagulase Negative Staphylococcus (GC 4547): strain GC 4547; for MIC Coagulase Negative Staphylococcus (GC 4548): strain GC 4548; for MIC Coagulase Negative Staphylococcus (GC 4549): strain GC 4549; for MIC Coagulase Negative Staphylococcus (GC 4551): strain GC 4551
Method in brief: as §1

[4] = test system: Streptococcus sp.; conditions: broth dilution, 18 hours at 35° C.; for MIC Streptococcus pneumoniae (ATCC 6301): strain ATCC 6301; for MIC Streptococcus pneumoniae (GC 1894): strain GC 1894; for MIC Streptococcus pyogenes (GC 4563): strain GC 4563; for MIC Streptococcus agalactiae (GC 4564): strain GC 4564; for MIC Streptococcus pneumoniae (GC 4565): strain GC 4565
Method in brief: as §1

MIC Enterococcus faecalis (ATCC 29212) ([1]; inoculum 5×10^5 CFU/mL): 2 µg/mL (≈ 1.36 µM)
MIC Enterococcus faecalis (GC 2242) ([1]; inoculum 5×10^5 CFU/mL): 2 µg/mL (≈ 1.36 µM)
MIC Enterococcus faecium (GC 2243) ([1]; inoculum 5×10^5 CFU/mL): 2 µg/mL (≈ 1.36 µM)
MIC Enterococcus faecalis (GC 2691) ([1]; inoculum 5×10^5 CFU/mL): 2 µg/mL (≈ 1.36 µM)
MIC Enterococcus faecalis (GC 3059) ([1]; inoculum 5×10^5 CFU/mL): 2 µg/mL (≈ 1.36 µM)
MIC Enterococcus faecalis (GC 4552) ([1]; inoculum 5×10^5 CFU/mL): 2 µg/mL (≈ 1.36 µM)
MIC Enterococcus faecalis (GC 4553) ([1]; inoculum 5×10^5 CFU/mL): 2 µg/mL (≈ 1.36 µM)
MIC Enterococcus faecalis (GC 4554) ([1]; inoculum 5×10^5 CFU/mL): 2 µg/mL (≈ 1.36 µM)
MIC Enterococcus faecium (GC 4556) ([1]; inoculum 5×10^5 CFU/mL): 2 µg/mL (≈ 1.36 µM)
MIC Enterococcus faecium (GC 4557) ([1]; inoculum 5×10^5 CFU/mL): 1 µg/mL (≈ 0.678 µM)
MIC Enterococcus avium (GC 4558) ([1]; inoculum 5×10^5 CFU/mL): 2 µg/mL (≈ 1.36 µM)
MIC Enterococcus faecalis (GC 6189) ([1]; inoculum 5×10^5 CFU/mL): 2 µg/mL (≈ 1.36 µM)
MIC Enterococcus faecalis (ATCC 29212) [1]: 2 µg/mL (≈ 1.36 µM)
MIC Enterococcus faecalis (GC 2242) [1]: 2 µg/mL (≈ 1.36 µM)
MIC Enterococcus faecium (GC 2243) [1]: 2 µg/mL (≈ 1.36 µM)
MIC Enterococcus faecalis (GC 2691) [1]: 2 µg/mL (≈ 1.36 µM)
MIC Enterococcus faecalis (GC 3059) [1]: 2 µg/mL (≈ 1.36 µM)
MIC Enterococcus faecalis (GC 4552) [1]: 2 µg/mL (≈ 1.36 µM)
MIC Enterococcus faecalis (GC 4553) [1]: 2 µg/mL (≈ 1.36 µM)
MIC Enterococcus faecalis (GC 4554) [1]: 2 µg/mL (≈ 1.36 µM)
MIC Enterococcus faecium (GC 4556) [1]: 2 µg/mL (≈ 1.36 µM)
MIC Enterococcus faecium (GC 4557) [1]: 1 µg/mL (≈ 0.678 µM)
MIC Enterococcus avium (GC 4558) [1]: 2 µg/mL (≈ 1.36 µM)
MIC Enterococcus faecalis (GC 6189) [1]: 2 µg/mL (≈ 1.36 µM)
MIC Escherichia coli (ATCC 25922) [2]: 64 µg/mL (≈ 43.4 µM)
MIC Escherichia coli (GC 4559) [2]: 16 µg/mL (≈ 10.9 µM)
MIC Escherichia coli (GC 4560) [2]: 0.5 µg/mL (≈ 0.339 µM)
MIC Staphylococcus aureus (GC 1131) ([3]; inoculum 5×10^5 CFU/mL): 1 µg/mL (≈ 0.678 µM)
MIC Staphylococcus aureus (ATCC 29213) [3]: 1 µg/mL (≈ 0.678 µM)
MIC Staphylococcus aureus (GC 1131) [3]: 1 µg/mL (≈ 0.678 µM)
MIC Staphylococcus aureus (GC 3051) [3]: 1 µg/mL (≈ 0.678 µM)
MIC Staphylococcus aureus (GC 3053) [3]: 1 µg/mL (≈ 0.678 µM)
MIC Staphylococcus aureus (GC 4541) [3]: 1 µg/mL (≈ 0.678 µM)
MIC Staphylococcus aureus (GC 4542) [3]: 1 µg/mL (≈ 0.678 µM)
MIC Staphylococcus aureus-SMITH (GC 4543) [3]: 1 µg/mL (≈ 0.678 µM)
MIC Staphylococcus aureus (GC 4544) [3]: 2 µg/mL (≈ 1.36 µM)
MIC Staphylococcus aureus (GC 4545) [3]: 1 µg/mL (≈ 0.678 µM)
MIC Coagulase Negative Staphylococcus (GC 4547) [3]: 2 µg/mL (≈ 1.36 µM)
MIC Coagulase Negative Staphylococcus (GC 4548) [3]: 0.5 µg/mL (≈ 0.339 µM)
MIC Coagulase Negative Staphylococcus (GC 4549) [3]: 0.5 µg/mL (≈ 0.339 µM)
MIC Coagulase Negative Staphylococcus (GC 4551) [3]: 1 µg/mL (≈ 0.678 µM)
MIC Streptococcus pneumoniae (ATCC 6301) ([4]; inoculum 5×10^5 CFU/mL): <0.12 µg/mL
MIC Streptococcus pneumoniae (GC 1894) ([4]; inoculum 5×10^5 CFU/mL): <0.12 µg/mL
MIC Streptococcus pyogenes (GC 4563) ([4]; inoculum 5×10^5 CFU/mL): 0.5 µg/mL (≈ 0.339 µM)
MIC Streptococcus agalactiae (GC 4564) ([4]; inoculum 5×10^5 CFU/mL): <0.12 µg/mL
MIC Streptococcus pneumoniae (GC 4565) ([4]; inoculum 5×10^5 CFU/mL): <0.12 µg/mL
MIC Streptococcus pneumoniae (ATCC 6301) [4]: <0.12 µg/mL
MIC Streptococcus pneumoniae (GC 1894) [4]: <0.12 µg/mL
MIC Streptococcus pyogenes (GC 4563) [4]: 0.5 µg/mL (≈ 0.339 µM)
MIC Streptococcus agalactiae (GC 4564) [4]: <0.12 µg/mL
MIC Streptococcus pneumoniae (GC 4565) [4]: <0.12 µg/mL
Structure (SMILES): CSc1ccc(C2OCC3OC(OC4C(CO)OC(Oc5ccc(CC6NC(=O)C(C(C)c7ccccc7)NC(=O)CNC(=O)C(CO)NC(=O)C(C(O)C7CNC(=N)N7C7OC(CO)C(O)C(O)C7O)NC(=O)C(C(O)C7CNC(=N)N7)NC6=O)cc5)C(O)C4O)C(O)C(O)C3O2)cc1[N+](=O)[O-] (stereo not drawn) [Example 168]
MIC Staphylococcus haemolyticus (GC 4546) [3]: 0.5 µg/mL (≈ 0.339 µM)

MIC Enterococcus faecalis (ATCC 29212) ([1]; inoculum 5×10^5 CFU/mL): >64 µg/mL
MIC Enterococcus faecalis (GC 2242) ([1]; inoculum 5×10^5 CFU/mL): > 64 µg/mL
MIC Enterococcus faecium (GC 2243) ([1]; inoculum 5×10^5 CFU/mL): >64 µg/mL
MIC Enterococcus faecalis (GC 2691) ([1]; inoculum 5×10^5 CFU/mL): >64 µg/mL
MIC Enterococcus faecalis (GC 3059) ([1]; inoculum 5×10^5 CFU/mL): >64 µg/mL
MIC Enterococcus faecalis (GC 4552) ([1]; inoculum 5×10^5 CFU/mL): >64 µg/mL
MIC Enterococcus faecalis (GC 4553) ([1]; inoculum 5×10^5 CFU/mL): >64 µg/mL
MIC Enterococcus faecalis (GC 4554) ([1]; inoculum 5×10^5 CFU/mL): >64 µg/mL
MIC Enterococcus faecium (GC 4556) ([1]; inoculum 5×10^5 CFU/mL): >64 µg/mL
MIC Enterococcus faecium (GC 4557) ([1]; inoculum 5×10^5 CFU/mL): 32 µg/mL (≈ 21.7 µM)
MIC Enterococcus avium (GC 4558) ([1]; inoculum 5×10^5 CFU/mL): >64 µg/mL
MIC Enterococcus faecalis (GC 6189) ([1]; inoculum 5×10^5 CFU/mL): >64 µg/mL
MIC Enterococcus faecalis (ATCC 29212) [1]: >64 µg/mL
MIC Enterococcus faecalis (GC 2242) [1]: >64 µg/mL
MIC Enterococcus faecium (GC 2243) [1]: >64 µg/mL
MIC Enterococcus faecalis (GC 2691) [1]: >64 µg/mL
MIC Enterococcus faecalis (GC 3059) [1]: >64 µg/mL
MIC Enterococcus faecalis (GC 4552) [1]: >64 µg/mL
MIC Enterococcus faecalis (GC 4553) [1]: >64 µg/mL
MIC Enterococcus faecalis (GC 4554) [1]: >64 µg/mL
MIC Enterococcus faecium (GC 4556) [1]: >64 µg/mL
MIC Enterococcus faecium (GC 4557) [1]: 32 µg/mL (≈ 21.7 µM)
MIC Enterococcus avium (GC 4558) [1]: >64 µg/mL
MIC Enterococcus faecalis (GC 6189) [1]: >64 µg/mL
MIC Escherichia coli (ATCC 25922) [2]: >64 µg/mL
MIC Escherichia coli (GC 4559) [2]: >64 µg/mL
MIC Escherichia coli (GC 4560) [2]: 8 µg/mL (≈ 5.43 µM)
MIC Staphylococcus aureus (GC 1131) ([3]; inoculum 5×10^5 CFU/mL): 32 µg/mL (≈ 21.7 µM)
MIC Staphylococcus aureus (ATCC 29213) [3]: 32 µg/mL (≈ 21.7 µM)
MIC Staphylococcus aureus (GC 1131) [3]: 32 µg/mL (≈ 21.7 µM)
MIC Staphylococcus aureus (GC 3051) [3]: 32 µg/mL (≈ 21.7 µM)
MIC Staphylococcus aureus (GC 3053) [3]: >64 µg/mL
MIC Staphylococcus aureus (GC 4541) [3]: 32 µg/mL (≈ 21.7 µM)
MIC Staphylococcus aureus (GC 4542) [3]: 32 µg/mL (≈ 21.7 µM)
MIC Staphylococcus aureus-SMITH (GC 4543) [3]: 32 µg/mL (≈ 21.7 µM)
MIC Staphylococcus aureus (GC 4544) [3]: 32 µg/mL (≈ 21.7 µM)
MIC Staphylococcus aureus (GC 4545) [3]: 32 µg/mL (≈ 21.7 µM)
MIC Coagulase Negative Staphylococcus (GC 4547) [3]: 32 µg/mL (≈ 21.7 µM)
MIC Coagulase Negative Staphylococcus (GC 4548) [3]: 32 µg/mL (≈ 21.7 µM)
MIC Coagulase Negative Staphylococcus (GC 4549) [3]: 16 µg/mL (≈ 10.9 µM)
MIC Coagulase Negative Staphylococcus (GC 4551) [3]: >64 µg/mL
MIC Coagulase Negative Staphylococcus (GC 6257) ([3]; strain GC 6257): 8 µg/mL (≈ 5.43 µM)
MIC Streptococcus pneumoniae (ATCC 6301) ([4]; inoculum 5×10^5 CFU/mL): 8 µg/mL (≈ 5.43 µM)
MIC Streptococcus pneumoniae (GC 1894) ([4]; inoculum 5×10^5 CFU/mL): 8 µg/mL (≈ 5.43 µM)
MIC Streptococcus pyogenes (GC 4563) ([4]; inoculum 5×10^5 CFU/mL): 16 µg/mL (≈ 10.9 µM)
MIC Streptococcus agalactiae (GC 4564) ([4]; inoculum 5×10^5 CFU/mL): 32 µg/mL (≈ 21.7 µM)
MIC Streptococcus pneumoniae (GC 4565) ([4]; inoculum 5×10^5 CFU/mL): 8 µg/mL (≈ 5.43 µM)
MIC Streptococcus pneumoniae (ATCC 6301) [4]: 8 µg/mL (≈ 5.43 µM)
MIC Streptococcus pneumoniae (GC 1894) [4]: 8 µg/mL (≈ 5.43 µM)
MIC Streptococcus pyogenes (GC 4563) [4]: 16 µg/mL (≈ 10.9 µM)
MIC Streptococcus agalactiae (GC 4564) [4]: 32 µg/mL (≈ 21.7 µM)
MIC Streptococcus pneumoniae (GC 4565) [4]: 8 µg/mL (≈ 5.43 µM)
Structure (SMILES): COc1cc(C2OCC3OC(OC4C(CO)OC(Oc5ccc(CC6NC(=O)C(C(C)c7ccccc7)NC(=O)CNC(=O)C(CO)NC(=O)C(C(O)C7CNC(=N)N7C7OC(CO)C(O)C(O)C7O)NC(=O)C(C(O)C7CNC(=N)N7)NC6=O)cc5)C(O)C4O)C(O)C(O)C3O2)cc([N+](=O)[O-])c1O (stereo not drawn) [Example 169]
MIC Staphylococcus haemolyticus (GC 4546) [3]: 32 µg/mL (≈ 21.7 µM)

From patent US6914045B2, “Glycopeptide antibiotics” (Wyeth Holdings Corporation, priority 2001, dated 2005)
